Test results: patent publication US12662490B2, “Heterocyclic compounds” (Hoffmann-La Roche Inc., priority 2019, dated 2026)

Target: T1, MAGL (Homo sapiens, UniProt Q99685)
T1 sequence (Q99685 1-303): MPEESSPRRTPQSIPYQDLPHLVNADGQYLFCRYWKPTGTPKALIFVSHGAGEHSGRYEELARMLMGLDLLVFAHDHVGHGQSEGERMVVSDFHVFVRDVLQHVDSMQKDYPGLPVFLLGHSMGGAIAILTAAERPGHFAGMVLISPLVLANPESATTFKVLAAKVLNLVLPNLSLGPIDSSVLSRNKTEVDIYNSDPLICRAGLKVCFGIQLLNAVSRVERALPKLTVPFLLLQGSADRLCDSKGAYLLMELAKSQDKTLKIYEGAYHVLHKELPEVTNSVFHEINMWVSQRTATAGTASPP
Test: 2-AG assay (MAGL inhibitory activity; hydrolysis of 2-arachidonoylglycerol to arachidonic acid followed by mass spectrometry)
Type: biochemical
Conditions: 15 min preincubation at RT, 8 μM 2-arachidonoylglycerol, 30 min at RT, RapidFire MS readout
Outline: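 Compounds (final 12.5 μM to […], 3-fold steps) preincubated 15 min at RT with MAGL ([…]) in 50 mM TRIS, 1 mM EDTA, Tween buffer. Reaction started with 8 μM 2-arachidonoylglycerol, run 30 min at RT, quenched with ACN containing d8-arachidonic acid. Arachidonic acid quantified by RapidFire SPE-triple quadrupole MS (negative ESI), activity from arachidonic acid/d8 ratio.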

SMILES	IC50 [nM]
O=C(c1cccc(-c2c[nH]c(=O)o2)c1Cl)N1CCN2C[C@@H](c3ccc(F)c(Cl)c3)OC[C@@H]2C1 [Example 121, 5-[3-[(3R,9aS)-3-(3-chloro-4-fluoro-phenyl)-3,4,6,7,9,9a-hexahydro-1H-pyrazino[2,1-c][1,4]oxazine-8-carbonyl]-2-chloro-phenyl]-3H-oxazol-2-one]	46.4
O=C(c1cccc(-c2c[nH]c(=O)o2)c1Cl)N1CCN2C[C@@](O)(c3ccc(Cl)c(Cl)c3)OC[C@@H]2C1 [Example 122, 5-[3-[(3R,9aS)-3-(3,4-dichlorophenyl)-3-hydroxy-1,4,6,7,9,9a-hexahydropyrazino[2,1-c][1,4]oxazine-8-carbonyl]-2-chloro-phenyl]-3H-oxazol-2-one]	48.6
Cc1cc(-c2cccc(C(=O)N3CCN4C[C@@H](c5ccc(F)c(Cl)c5)OC[C@@H]4C3)c2Cl)cc(=O)[nH]1 [Example 123, 4-[3-[(3R,9aS)-3-(3-chloro-4-fluoro-phenyl)-3,4,6,7,9,9a-hexahydro-1H-pyrazino[2,1-c][1,4]oxazine-8-carbonyl]-2-chloro-phenyl]-6-methyl-1H-pyridin-2-one]	55.7
Cc1[nH]c(=O)ccc1-c1cccc(C(=O)N2CCN3C[C@@H](c4ccc(F)c(Cl)c4)OC[C@@H]3C2)c1Cl [Example 124, 5-[3-[(3R,9aS)-3-(3-chloro-4-fluoro-phenyl)-3,4,6,7,9,9a-hexahydro-1H-pyrazino[2,1-c][1,4]oxazine-8-carbonyl]-2-chloro-phenyl]-6-methyl-1H-pyridin-2-one]	57.6
COc1cccc(C(=O)N2CCN3C[C@@](O)(c4cc(Cl)cc(Br)c4)OC[C@@H]3C2)c1Cl [Example 125, [(3R,9aS)-3-(3-bromo-5-chloro-phenyl)-3-hydroxy-1,4,6,7,9,9a-hexahydropyrazino[2,1-c][1,4]oxazin-8-yl]-(2-chloro-3-methoxy-phenyl)methanone]	82.8
O=C1CN(c2cccc(C(=O)N3CCN4C[C@@H](c5ccc(F)c(Cl)c5)OC[C@@H]4C3)c2Cl)CCN1 [Example 126, 4-[3-[(3R,9aS)-3-(3-chloro-4-fluoro-phenyl)-3,4,6,7,9,9a-hexahydro-1H-pyrazino[2,1-c][1,4]oxazine-8-carbonyl]-2-chloro-phenyl]piperazin-2-one]	96.2
O=C(c1cccc(-c2cnsc2)c1Cl)N1CCN2C[C@@](O)(c3ccc(F)c(Cl)c3)OC[C@@H]2C1 [Example 127, [(3R,9aS)-3-(3-chloro-4-fluoro-phenyl)-3-hydroxy-1,4,6,7,9,9a-hexahydropyrazino[2,1-c][1,4]oxazin-8-yl]-(2-chloro-3-isothiazol-4-yl-phenyl)methanone]	97.7
COc1cccc(C(=O)N2CCN3C[C@@H](c4cc(F)c(F)cc4F)OC[C@@H]3C2)c1Cl [Example 128, [(3R,9aS)-3-(2,4,5-trifluorophenyl)-3,4,6,7,9,9a-hexahydro-1H-pyrazino[2,1-c][1,4]oxazin-8-yl]-(2-chloro-3-methoxy-phenyl)methanone]	103
COc1cccc(C(=O)N2CCN3C[C@@](O)(c4ccc(Cl)cc4Cl)OC[C@@H]3C2)c1Cl [Example 129, [(3R,9aS)-3-(2,4-dichlorophenyl)-3-hydroxy-1,4,6,7,9,9a-hexahydropyrazino[2,1-c][1,4]oxazin-8-yl]-(2-chloro-3-methoxy-phenyl)methanone]	113
COc1cccc(C(=O)N2CCN3C[C@@](O)(c4ccc(F)c(F)c4F)OC[C@@H]3C2)c1Cl [Example 130, [(3R,9aS)-3-hydroxy-3-(2,3,4-trifluorophenyl)-1,4,6,7,9,9a-hexahydropyrazino[2,1-c][1,4]oxazin-8-yl]-(2-chloro-3-methoxy-phenyl)methanone]	117
COc1cccc(C(=O)N2CCN3C[C@@](O)(c4cc(Br)c(OC)s4)OC[C@@H]3C2)c1Cl [Example 131, [(3S,9aS)-3-(4-bromo-5-methoxy-2-thienyl)-3-hydroxy-1,4,6,7,9,9a-hexahydropyrazino[2,1-c][1,4]oxazin-8-yl]-(2-chloro-3-methoxy-phenyl)methanone]	118
N#Cc1cc(-c2cc(F)cc(C(=O)N3CCN4C[C@@H](c5c[nH]c(C(F)(F)F)cc5=O)OC[C@@H]4C3)c2Cl)c[nH]1 [Example 132, 4-[3-[(3R,9aS)-3-[4-oxo-6-(trifluoromethyl)-1H-pyridin-3-yl]-3,4,6,7,9,9a-hexahydro-1H-pyrazino[2,1-c][1,4]oxazine-8-carbonyl]-2-chloro-5-fluoro-phenyl]-1H-pyrrole-2-carbonitrile]	131
O=C(c1cc(F)cc(-c2c[nH]nc2F)c1Cl)N1CCN2C[C@@H](c3cc(Cl)c[nH]c3=O)OC[C@@H]2C1 [Example 133, 3-[(3R,9aS)-8-[2-chloro-5-fluoro-3-(3-fluoro-1H-pyrazol-4-yl)benzoyl]-3,4,6,7,9,9a-hexahydro-1H-pyrazino[2,1-c][1,4]oxazin-3-yl]-5-chloro-1H-pyridin-2-one]	142
O=C(c1cccc(-c2n[nH]c(=O)o2)c1Cl)N1CCN2C[C@@H](c3ccc(F)c(Cl)c3)OC[C@@H]2C1 [Example 134, 5-[3-[(3R,9aS)-3-(3-chloro-4-fluoro-phenyl)-3,4,6,7,9,9a-hexahydro-1H-pyrazino[2,1-c][1,4]oxazine-8-carbonyl]-2-chloro-phenyl]-3H-1,3,4-oxadiazol-2-one]	144
COc1cccc(C(=O)N2CCN3C[C@@H](c4cc(Cl)c(F)c(C#N)c4)OC[C@@H]3C2)c1Cl [Example 135, 5-[(3R,9aS)-8-(2-chloro-3-methoxy-benzoyl)-3,4,6,7,9,9a-hexahydro-1H-pyrazino[2,1-c][1,4]oxazin-3-yl]-3-chloro-2-fluoro-benzonitrile]	146
COc1cccc(C(=O)N2CCN3C[C@@](O)(c4ccc(C(F)(F)F)[nH]c4=O)OC[C@@H]3C2)c1Cl [Example 136, 3-[(3R,9aS)-8-(2-chloro-3-methoxy-benzoyl)-3-hydroxy-1,4,6,7,9,9a-hexahydropyrazino[2,1-c][1,4]oxazin-3-yl]-6-(trifluoromethyl)-1H-pyridin-2-one]	152
COc1cccc(C(=O)N2CCN3C[C@@H](c4ccc(-c5cnco5)c(Cl)c4)OC[C@@H]3C2)c1Cl [Example 137, [(3R,9aS)-3-(3-chloro-4-oxazol-5-yl-phenyl)-3,4,6,7,9,9a-hexahydro-1H-pyrazino[2,1-c][1,4]oxazin-8-yl]-(2-chloro-3-methoxy-phenyl)methanone]	182
N#Cc1cc(-c2cccc(C(=O)N3CCN4C[C@@H](c5ccc(F)c(Cl)c5)OC[C@@H]4C3)c2Cl)n[nH]1 [Example 138, 3-[3-[(3R,9aS)-3-(3-chloro-4-fluoro-phenyl)-3,4,6,7,9,9a-hexahydro-1H-pyrazino[2,1-c][1,4]oxazine-8-carbonyl]-2-chloro-phenyl]-1H-pyrazole-5-carbonitrile]	190
COc1cccc(C(=O)N2CCN3C[C@@](O)(c4csc(-c5ccc(F)cc5)n4)OC[C@@H]3C2)c1Cl [Example 139, [(3S,9aS)-3-[2-(4-fluorophenyl)thiazol-4-yl]-3-hydroxy-1,4,6,7,9,9a-hexahydropyrazino[2,1-c][1,4]oxazin-8-yl]-(2-chloro-3-methoxy-phenyl)methanone]	254
